Experimental data: patent US8008279B2, “Compound—827” (AstraZeneca AB, priority 2007, dated 2011)

These molecules were tested against T1, rhuman cathepsin K (Homo sapiens, UniProt P43235) (assay: Assay for identification of Cathepsin K inhibitors (QFRET, cleavage of Z-Phe-Arg-AMC)). Conditions: 0.5 nM rhuman cathepsin K, Z-Phe-Arg-AMC substrate, 30 min pre-incubation, 1 h incubation at room temperature; mean of two separate occasions; read-out: CatK FRET Mean pIC50 (converted).
T1 sequence (P43235 115-329): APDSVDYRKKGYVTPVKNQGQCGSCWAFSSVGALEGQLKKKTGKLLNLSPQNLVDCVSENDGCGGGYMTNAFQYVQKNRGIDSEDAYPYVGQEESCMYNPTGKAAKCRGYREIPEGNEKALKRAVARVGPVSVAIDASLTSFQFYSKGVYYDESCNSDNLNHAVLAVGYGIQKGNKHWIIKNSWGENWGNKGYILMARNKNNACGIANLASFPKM
Format: biochemical
Procedure: 0.5 nM [final] rhuman cathepsin K in phosphate buffer was added to a 384-well black microtitre plate containing investigative compounds. The enzyme and compound were pre-incubated at room temperature for 30 minutes before the addition of […] [final] Z-Phe-Arg-AMC synthetic substrate in phosphate buffer. The plates were covered and incubated for 1 h at room temperature, protected from light. Following the incubation the reaction was stopped with 7.5% [final]acetic acid. Relative fluorescence was measured using the Ultra plate reader at a wavelength of 360 nm excitation and 425 nm emission.
Data was corrected for background fluorescence (minimum controls without enzyme).

| IC50 | SMILES |
| --- | --- |
| 1.91 nM | N#Cc1cccc2c3c([nH]c12)CCN(C(=O)[C@@H]1CCCC[C@H]1C(=O)NC1(C#N)CC1)C3 [Example 20, (1R,2R)-N-(1-cyanocyclopropyl)-2-[(6-cyano-1,3,4,5-tetrahydro-2H-pyrido[4,3-b]indol-2-yl)carbonyl]cyclohexanecarboxamide] |
| 5.5 nM | N#CC1(NC(=O)[C@@H]2CCCC[C@H]2C(=O)N2CCc3[nH]c4c(C(F)(F)F)cccc4c3C2)CC1 [Example 30, (1R,2R)-N-(1-cyanocyclopropyl)-2-{[6-(trifluoromethyl)-1,3,4,5-tetrahydro-2H-pyrido[4,3-b]indol-2-yl]carbonyl}cyclohexanecarboxamide] |
| 6.44 nM | N#CC1(NC(=O)[C@@H]2CCCC[C@H]2C(=O)N2CCc3oc4ncccc4c3C2)CC1 [Example 41, (1R,2R)-2-(7,8-Dihydro-5H-furo[2,3-b:4,5-c′]dipyridine-6-carbonyl)-cyclohexanecarboxylic acid (1-cyano-cyclopropyl)-amide] |
| 2.13 nM | N#CC1(NC(=O)[C@@H]2CCCC[C@H]2C(=O)N2CCc3[nH]c4c5c(ccc4c3C2)OC(F)(F)O5)CC1 [Example 44, (1R,2R)-N-(1-cyanocyclopropyl)-2-(2,2-difluoro-7,8,9,10-tetrahydro-6H-[1,3]dioxolo[4,5-g]pyrido[4,3-b]indole-7-carbonyl)cyclohexanecarboxamide] |
| 4.32 nM | CSc1cccc2c3c([nH]c12)CCN(C(=O)[C@@H]1CCCC[C@H]1C(=O)NC1(C#N)CC1)C3 [Example 22, (1R,2R)-N-(1-cyanocyclopropyl)-2-{[6-(methylthio)-1,3,4,5-tetrahydro-2H-pyrido[4,3-b]indol-2-yl]carbonyl}cyclohexanecarboxamide] |
| 3.45 nM | N#CC1(NC(=O)[C@@H]2CCCC[C@H]2C(=O)N2CCc3c(c4ccccc4n3CC3CC3)C2)CC1 [Example 28, (1R,2R)-N-(1-cyanocyclopropyl)-2-[(5-cyclopropylmethyl-1,3,4,5-tetrahydro-2H-pyrido[4,3-b]indol-2-yl)carbonyl]cyclohexanecarboxamide] |
| 0.807 nM | COc1cc(F)cc2c3c([nH]c12)CCN(C(=O)[C@@H]1CCCC[C@H]1C(=O)NC1(C#N)CC1)C3 [Example 45, (1R,2R)-N-(1-cyanocyclopropyl)-2-(8-fluoro-6-methoxy-2,3,4,5-tetrahydro-1H-pyrido[4,3-b]indole-2-carbonyl)cyclohexanecarboxamide] |
| 2.85 nM | COC(=O)Cn1c2c(c3ccccc31)CN(C(=O)[C@@H]1CCCC[C@H]1C(=O)NC1(C#N)CC1)CC2 [Example 26, (1R,2R)-N-(1-cyanocyclopropyl)-2-[(5-methoxycarbonylmethyl-1,3,4,5-tetrahydro-2H-pyrido[4,3-b]indol-2-yl)carbonyl]cyclohexanecarboxamide] |
| 3.2 nM | N#CC1(NC(=O)[C@@H]2CCCC[C@H]2C(=O)N2CCc3[nH]c4c(OCCN5CCOCC5)cccc4c3C2)CC1 [Example 37, (1R,2R)-N-(1-cyanocyclopropyl)-2-(6-(2-morpholinoethoxy)-2,3,4,5-tetrahydro-1H-pyrido[4,3-b]indole-2-carbonyl)cyclohexanecarboxamide] |
| 0.728 nM | N#CC1(NC(=O)[C@@H]2CCCC[C@H]2C(=O)N2CCc3[nH]c4c(OCCN5CCCCC5)cccc4c3C2)CC1 [Example 39, (1R,2R)-N-(1-cyanocyclopropyl)-2-(6-(2-(piperidin-1-yl)ethoxy)-2,3,4,5-tetrahydro-1H-pyrido[4,3-b]indole-2-carbonyl)cyclohexanecarboxamide] |
| 0.899 nM | CCOc1cccc2c3c([nH]c12)CCN(C(=O)[C@@H]1CCCC[C@H]1C(=O)NC1(C#N)CC1)C3 [Example 25, (1R,2R)-N-(1-cyanocyclopropyl)-2-[(6-ethoxy-1,3,4,5-tetrahydro-2H-pyrido[4,3-b]indol-2-yl)carbonyl]cyclohexanecarboxamide] |
| 1.03 nM | N#CC1(NC(=O)[C@@H]2CCCC[C@H]2C(=O)N2CCc3[nH]c4c(O)cccc4c3C2)CC1 [Example 33, (1R,2R)-N-(1-cyanocyclopropyl)-2-[(6-hydroxy-1,3,4,5-tetrahydro-2H-pyrido[4,3-b]indol-2-yl)carbonyl]cyclohexanecarboxamide] |
| 1.88 nM | N#CC1(NC(=O)[C@@H]2CCCC[C@H]2C(=O)N2CCc3[nH]c4c(OC(F)(F)F)cccc4c3C2)CC1 [Example 24, (1R,2R)-N-(1-cyanocyclopropyl)-2-{[6-(trifluoromethoxy)-1,3,4,5-tetrahydro-2H-pyrido[4,3-b]indol-2-yl]carbonyl}cyclohexanecarboxamide] |
| 10.8 nM | CS(=O)(=O)n1c2c(c3ccccc31)CN(C(=O)[C@@H]1CCCC[C@H]1C(=O)NC1(C#N)CC1)CC2 [Example 40, (1R,2R)-N-(1-cyanocyclopropyl)-2-[(5-methanesulphonyl-1,3,4,5-tetrahydro-2H-pyrido[4,3-b]indol-2-yl)carbonyl]cyclohexanecarboxamide] |

More lines, now with the values behind:

| SMILES | IC50 |
| --- | --- |
| N#CC1(NC(=O)[C@@H]2CCCC[C@H]2C(=O)N2CCc3[nH]c4ccc(Cl)cc4c3C2)CC1 [Example 2, (1R,2R)-2-[(8-chloro-1,3,4,5-tetrahydro-2H-pyrido[4,3-b]indol-2-yl)carbonyl]-N-(1-cyanocyclopropyl)cyclohexanecarboxamide] | 2.99 nM |
| CC(C)c1ccc2[nH]c3c(c2c1)CN(C(=O)[C@@H]1CCCC[C@H]1C(=O)NC1(C#N)CC1)CC3 [Example 11, (1R,2R)-N-(1-cyanocyclopropyl)-2-[(8-isopropyl-1,3,4,5-tetrahydro-2H-pyrido[4,3-b]indol-2-yl)carbonyl]cyclohexanecarboxamide] | 3.67 nM |
| N#CC1(NC(=O)[C@@H]2CCCC[C@H]2C(=O)N2Cc3ccccc3C3(CCNCC3)C2)CC1 [Example 18, (1R,2R)-N-(1-cyanocyclopropyl)-2-(1H-spiro[isoquinoline-4,4′-piperidin]-2(3H)-ylcarbonyl)cyclohexanecarboxamide] | 7.1 nM |
| CN(C)Cc1ccc2[nH]c3c(c2c1)CN(C(=O)[C@@H]1CCCC[C@H]1C(=O)NC1(C#N)CC1)CC3 [Example 15, (1R,2R)-N-(1-cyanocyclopropyl)-2-({8-[(dimethylamino)methyl]-1,3,4,5-tetrahydro-2H-pyrido[4,3-b]indol-2-yl}carbonyl)cyclohexanecarboxamide] | 8.91 nM |
| N#CC1(NC(=O)[C@@H]2CCCC[C@H]2C(=O)N2CCc3[nH]c4ncccc4c3C2)CC1 [Example 14] | 1.07 nM |
| CS(=O)(=O)c1cccc2c3c([nH]c12)CCN(C(=O)[C@@H]1CCCC[C@H]1C(=O)NC1(C#N)CC1)C3 [Example 31, (1R,2R)-N-(1-cyanocyclopropyl)-2-{[6-(methylsulfonyl)-1,3,4,5-tetrahydro-2H-pyrido[4,3-b]indol-2-yl]carbonyl}cyclohexanecarboxamide] | 17.4 nM |
| N#CC1(NC(=O)[C@@H]2CCCC[C@H]2C(=O)N2CCc3[nH]c4ccc(Br)cc4c3C2)CC1 [Example 5, (1R,2R)-2-[(8-bromo-1,3,4,5-tetrahydro-2H-pyrido[4,3-b]indol-2-yl)carbonyl]-N-(1-cyanocyclopropyl)cyclohexanecarboxamide] | 6.38 nM |
| COc1cccc2c3c([nH]c12)CCN(C(=O)[C@@H]1CCCC[C@H]1C(=O)NC1(C#N)CC1)C3 [Example 17, (1R,2R)-N-(1-cyanocyclopropyl)-2-[(6-methoxy-1,3,4,5-tetrahydro-2H-pyrido[4,3-b]indol-2-yl)carbonyl]cyclohexanecarboxamide] | 0.658 nM |
| N#CC1(NC(=O)[C@@H]2CCCC[C@H]2C(=O)N2CCc3[nH]c4c(F)cccc4c3C2)CC1 [Example 3, (1R,2R)-N-(1-cyanocyclopropyl)-2-[(6-fluoro-1,3,4,5-tetrahydro-2H-pyrido[4,3-b]indol-2-yl)carbonyl]cyclohexanecarboxamide] | 0.767 nM |
| N#CC1(NC(=O)[C@@H]2CCCC[C@H]2C(=O)N2CCc3[nH]c4cc(F)ccc4c3C2)CC1 [Example 10, (1R,2R)-N-(1-cyanocyclopropyl)-2-[(7-fluoro-1,3,4,5-tetrahydro-2H-pyrido[4,3-b]indol-2-yl)carbonyl]cyclohexanecarboxamide] | 10.2 nM |
| N#CC1(NC(=O)[C@@H]2CCCC[C@H]2C(=O)N2CCc3[nH]c4ccc(C(F)(F)F)cc4c3C2)CC1 [Example 7, (1R,2R)-N-(1-cyanocyclopropyl)-2-{[8-(trifluoromethyl)-1,3,4,5-tetrahydro-2H-pyrido[4,3-b]indol-2-yl]carbonyl}cyclohexanecarboxamide] | 42.1 nM |
| COc1ccc2[nH]c3c(c2c1)CN(C(=O)[C@@H]1CCCC[C@H]1C(=O)NC1(C#N)CC1)CC3 [Example 8, (1R,2R)-N-(1-cyanocyclopropyl)-2-[(8-methoxy-1,3,4,5-tetrahydro-2H-pyrido[4,3-b]indol-2-yl)carbonyl]cyclohexanecarboxamide] | 40.7 nM |
| Cn1c2c(c3cc(F)ccc31)CN(C(=O)[C@@H]1CCCC[C@H]1C(=O)NC1(C#N)CC1)CC2 [Example 12, (1R,2R)-N-(1-cyanocyclopropyl)-2-[(8-fluoro-5-methyl-1,3,4,5-tetrahydro-2H-pyrido[4,3-b]indol-2-yl)carbonyl]cyclohexanecarboxamide] | 2.84 nM |
| N#CC1(NC(=O)[C@@H]2CCCC[C@H]2C(=O)N2CCc3[nH]c4ccccc4c3C2)CC1 [Example 4, (1R,2R)-N-(1-cyanocyclopropyl)-2-(1,3,4,5-tetrahydro-2H-pyrido[4,3-b]indol-2-ylcarbonyl)cyclohexanecarboxamide] | 1.3 nM |
